Source: PubChem BioAssay AID2060333 (Molecular Pharmacology Branch, DTP, NCI, 2025)
pIC50: −log10 of the molar value.

System: 845751-090-R-J2-PDC tumor spheroid viability
Assay: Anticancer human tumor 845751-090-R-J2-PDC patient-derived head and neck squamous carcinoma cell line growth inhibition [IpAb]
Settings: spheroids with HUVEC and MSC; for pIC50: curve of first compound; for viability, T/C: stronger effect = lower value
Outline: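 Multi-cell spheroids of 60% tumour cells, 25% HUVEC and 15% MSC in ultra-low-attachment U-bottom wells, treated with agents combined with ipatasertib or abemaciclib. Half-log ranges top out near clinical Cmax, or 10 microM when Cmax is unknown.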

[1] = second compound 0.01 µM, first compound 0.00316 µM
[2] = second compound 0.01 µM, first compound 0.01 µM
[3] = second compound 0.01 µM, first compound 0.0316 µM
[4] = second compound 0.01 µM, first compound 0.1 µM
[5] = second compound 0.0316 µM, first compound 0.00316 µM
[6] = second compound 0.0316 µM, first compound 0.01 µM
[7] = second compound 0.0316 µM, first compound 0.0316 µM
[8] = second compound 0.0316 µM, first compound 0.1 µM
[9] = second compound 0.1 µM, first compound 0.00316 µM
[10] = second compound 0.1 µM, first compound 0.01 µM
[11] = second compound 0.1 µM, first compound 0.0316 µM
[12] = second compound 0.1 µM, first compound 0.1 µM
[13] = second compound 0.316 µM, first compound 0.00316 µM
[14] = second compound 0.316 µM, first compound 0.01 µM
[15] = second compound 0.316 µM, first compound 0.0316 µM
[16] = second compound 0.316 µM, first compound 0.1 µM
[17] = second compound 1 µM, first compound 0.00316 µM
[18] = second compound 1 µM, first compound 0.01 µM
[19] = second compound 1 µM, first compound 0.0316 µM
[20] = second compound 1 µM, first compound 0.1 µM
[21] = second compound 0.01 µM, first compound 0.316 µM
[22] = second compound 0.01 µM, first compound 1 µM
[23] = second compound 0.01 µM, first compound 3.16 µM
[24] = second compound 0.01 µM, first compound 10 µM
[25] = second compound 0.0316 µM, first compound 0.316 µM
[26] = second compound 0.0316 µM, first compound 1 µM
[27] = second compound 0.0316 µM, first compound 3.16 µM
[28] = second compound 0.0316 µM, first compound 10 µM
[29] = second compound 0.1 µM, first compound 0.316 µM
[30] = second compound 0.1 µM, first compound 1 µM
[31] = second compound 0.1 µM, first compound 3.16 µM
[32] = second compound 0.1 µM, first compound 10 µM
[33] = second compound 0.316 µM, first compound 0.316 µM
[34] = second compound 0.316 µM, first compound 1 µM
[35] = second compound 0.316 µM, first compound 3.16 µM
[36] = second compound 0.316 µM, first compound 10 µM
[37] = second compound 1 µM, first compound 0.316 µM
[38] = second compound 1 µM, first compound 1 µM
[39] = second compound 1 µM, first compound 3.16 µM
[40] = second compound 1 µM, first compound 10 µM
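Also: spheroids exposed to compounds for 7 days before readout.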
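For viability, T/C in this document: CTG3D luminescence normalised so that 100% = DMSO vehicle control.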

Compound | pIC50 (second compound 0.01 µM) | pIC50 (second compound 0.0316 µM) | pIC50 (second compound 0.1 µM) | pIC50 (second compound 0.316 µM) | pIC50 (second compound 1 µM) | viability, T/C [3] [%] | viability, T/C [4] [%] | viability, T/C [7] [%] | viability, T/C [8] [%] | viability, T/C [11] [%] | viability, T/C [12] [%] | viability, T/C [15] [%] | viability, T/C [16] [%] | viability, T/C [19] [%] | viability, T/C [20] [%] | viability, T/C [21] [%] | viability, T/C [22] [%] | viability, T/C [25] [%] | viability, T/C [26] [%] | viability, T/C [29] [%] | further results
CC(C)n1nc(-c2ccc3oc(N)nc3c2)c2c(N)ncnc21 + CCN1CCN(Cc2ccc(Nc3ncc(F)c(-c4cc(F)c5nc(C)n(C(C)C)c5c4)n3)nc2)CC1 | 8.96 | 8.42 | 8.53 | 8.56 | 7.91 | 26.8 | 21.1 | 26.6 | 23.5 | 25.7 | 20.6 | 32.7 | 30.2 | 45.5 | 34.7 |  |  |  |  |  | viability, T/C (second compound 0.01 µM, first compound 0.000316 µM): 72.6%; viability, T/C (second compound 0.01 µM, first compound 0.001 µM): 47.8%; viability, T/C [1]: 39.2%; viability, T/C [2]: 33%; viability, T/C (second compound 0.0316 µM, first compound 0.000316 µM): 66.7%; viability, T/C (second compound 0.0316 µM, first compound 0.001 µM): 68.2%; viability, T/C [5]: 54.3%; viability, T/C [6]: 28.1%; viability, T/C (second compound 0.1 µM, first compound 0.000316 µM): 62.6%; viability, T/C (second compound 0.1 µM, first compound 0.001 µM): 50.2%; viability, T/C [9]: 52.2%; viability, T/C [10]: 30.3%; viability, T/C (second compound 0.316 µM, first compound 0.000316 µM): 47.5%; viability, T/C (second compound 0.316 µM, first compound 0.001 µM): 56.6%; viability, T/C [13]: 49.6%; viability, T/C [14]: 33.4%; viability, T/C (second compound 1 µM, first compound 0.000316 µM): 56.7%; viability, T/C (second compound 1 µM, first compound 0.001 µM): 74%; viability, T/C [17]: 57.7%; viability, T/C [18]: 49%
CC1(C)CCC(CN2CCN(c3ccc(C(=O)NS(=O)(=O)c4ccc(NCC5CCOCC5)c([N+](=O)[O-])c4)c(Oc4cnc5[nH]ccc5c4)c3)CC2)=C(c2ccc(Cl)cc2)C1 + CCN1CCN(Cc2ccc(Nc3ncc(F)c(-c4cc(F)c5nc(C)n(C(C)C)c5c4)n3)nc2)CC1 | 5.12 | 5.15 | 5.20 | 5.19 | 5.17 | 104 | 119 | 136 | 90.5 | 75 | 72.2 | 74.6 | 108 | 106 | 107 | 103 | 91.3 | 80.8 | 93.6 | 94.6 | viability, T/C [23]: 138%; viability, T/C [24]: 29.8%; viability, T/C [27]: 137%; viability, T/C [28]: 24.4%; viability, T/C [30]: 104%; viability, T/C [31]: 117%; viability, T/C [32]: 22.7%; viability, T/C [33]: 92.3%; viability, T/C [34]: 85.3%; viability, T/C [35]: 115%; viability, T/C [36]: 21.6%; viability, T/C [37]: 102%; viability, T/C [38]: 115%; viability, T/C [39]: 123%; viability, T/C [40]: 18.5%
CCCS(=O)(=O)Nc1ccc(F)c(C(=O)c2c[nH]c3ncc(-c4ccc(Cl)cc4)cc23)c1F + CCN1CCN(Cc2ccc(Nc3ncc(F)c(-c4cc(F)c5nc(C)n(C(C)C)c5c4)n3)nc2)CC1 | 6.23 | 6.17 | 6.34 | 6.24 | 6.04 | 95 | 70.8 | 86.4 | 64.9 | 65 | 60.2 | 74.2 | 65.7 | 81.5 | 81.2 | 52.4 | 50.7 | 66.6 | 43.4 | 58.8 | viability, T/C [23]: 35%; viability, T/C [24]: 24.7%; viability, T/C [27]: 30.9%; viability, T/C [28]: 20.5%; viability, T/C [30]: 30.9%; viability, T/C [31]: 23.2%; viability, T/C [32]: 29.5%; viability, T/C [33]: 63.4%; viability, T/C [34]: 38.6%; viability, T/C [35]: 28.6%; viability, T/C [36]: 23%; viability, T/C [37]: 70.3%; viability, T/C [38]: 47.4%; viability, T/C [39]: 38.1%; viability, T/C [40]: 32.1%
COc1c(OCCCN2CCOCC2)ccc2c3n(c(=NC(=O)c4cnc(N)nc4)nc12)CCN3 + CCN1CCN(Cc2ccc(Nc3ncc(F)c(-c4cc(F)c5nc(C)n(C(C)C)c5c4)n3)nc2)CC1 | 8.14 | 8.30 | 8.28 | 8.20 | 7.97 | 30.8 | 13.7 | 28.3 | 11.9 | 26.3 | 11.7 | 24.6 | 15.8 | 31.2 | 21.5 | 10.6 | 4.54 | 8.73 | 3.86 | 12.8 | viability, T/C [1]: 63.3%; viability, T/C [2]: 43.5%; viability, T/C [5]: 54%; viability, T/C [6]: 43.6%; viability, T/C [9]: 56.5%; viability, T/C [10]: 41.6%; viability, T/C [30]: 3.55%; viability, T/C [13]: 68.2%; viability, T/C [14]: 35.9%; viability, T/C [33]: 11.7%; viability, T/C [34]: 4.79%; viability, T/C [17]: 60%; viability, T/C [18]: 54.1%; viability, T/C [37]: 12.6%; viability, T/C [38]: 5.48%
Cc1nc(NC(=O)N2CCCC2C(N)=O)sc1-c1ccnc(C(C)(C)C(F)(F)F)c1 (stereo not given) + CCN1CCN(Cc2ccc(Nc3ncc(F)c(-c4cc(F)c5nc(C)n(C(C)C)c5c4)n3)nc2)CC1 | 7.00 | 7.12 | > 7.50 | 7.44 | 6.94 | 69.5 | 46.2 | 62.1 | 41.9 | 41.8 | 43.6 | 51.2 | 39.8 | 54.9 | 50.5 | 37.3 | 28.9 | 40.9 | 22.5 | 27.4 | viability, T/C [23]: 12.9%; viability, T/C [24]: 11.6%; viability, T/C [27]: 15.5%; viability, T/C [28]: 10.9%; viability, T/C [30]: 20.8%; viability, T/C [31]: 14.7%; viability, T/C [32]: 10.1%; viability, T/C [33]: 25.9%; viability, T/C [34]: 20.9%; viability, T/C [35]: 17.9%; viability, T/C [36]: 12.4%; viability, T/C [37]: 42.4%; viability, T/C [38]: 24.1%; viability, T/C [39]: 18.7%; viability, T/C [40]: 11.3%
